In patent publication US11154529B2, “Phosphaplatin liquid formulations” (Phosplatin Therapeutics Inc., priority 2016, dated 2021):

Assay: Ready-to-use formulation stability at 2-8° C., 5 mg/mL (R,R)-pyrodach-2 in 10 mM Potassium Phosphate Buffer at pH 7.4, 10 mL vials
Format: physicochemical
Protocol: A scalable and commercially viable process for the manufacture of a ready-to-use formulation of (R,R)-pyrodach-2 in 10 mM buffer adjusted to a pH of 7.0-7.5 comprises the steps of: a) preparing a 10 mM aqueous solution of buffer; b) adding sufficient hydroxide base to effect neutralization of the added (R,R)-pyrodach-2 to reach a pH of about 7; c) adding (R,R)-pyrodach-2 and allowing it to dissolve; d) if necessary adding additional hydroxide to adjust the pH into a range of about 7.0-7.5; and e) filtering the solution under sterile conditions, filling the solution into glass vials, and covering it with a stopper and/or a cap. Stability data on two large batches of 5 mg/mL (R,R)-pyrodach-2 in 10 mM potassium phosphate buffer were generated. One such batch at pH=7.2 was evaluated at both 25° C./60% RH and refrigerated (2-8° C.) conditions, with data summarized in Table 4 and Table 5, respectively. […] Similar observations have been made for the ready-to-use liquid formulation at pH7.4, as illustrated in Table 6 and Table 7.
• Transfer 4564.6 mg±0.5 mg of potassium phosphate dibasic, trihydrate to a 2-L volumetric flask. • Fill flask to approximately 75% volume with water, swirl as needed to dissolve all solids. • Volumetrically transfer 32.0 mL of 1N KOH to flask. • Dilute flask to volume with water and mix well. • Record pH of final solution. This is the diluent. • Transfer 7653.1 mg±0.5 mg of (R,R)-pyrodach-2 to a compounding vessel. • Transfer 1500 mL of the diluent to the vessel and stir to dissolve solids. • Record pH of final solution. • Pass entire solution through a 0.22 μm sterile filter membrane into a sterile collection vessel. • Calculate (R,R)-pyrodach-2 solution concentration
To a […] glass beaker equipped with mechanical mixer was add 24645.5 g of sterile water for injection. With agitation 47.03 gm of dibasic potassium phosphate USP was added and the solids allowed to dissolve. To the stirred solution was added 253.8 gm of 1.00 N potassium hydroxide. Sterile water for injection USP (900.0 gm) was used as a rinse to facilitate both additions. With vigorous agitation, (R,R)-pyrodach-2 (201.87 gm) was slowly added and agitation continued until all of the solids dissolved. Sterile water for injection USP (900.0 gm) was used as a rinse to facilitate the addition. The pH was determined to be 6.7. A total of 85 mL of 1.00 N potassium hydroxide was added in 5.0 mL aliquots to adjust the pH to 7.3. The solution was sterile filtered through 0.22μ Millipore Millipack filter and aseptically filled, 10 ml top a vial in 10 mL in 10 cc Wheaton clear molded vails, stoppered with a 20 mm stopper and crimp seal capped.

## O=P1(O)OP(=O)(O)[O][Pt]2([NH][C@@H]3CCCC[C@H]3[NH]2)[O]1 (stereo partly drawn) [(R,R)-pyrodach-2, (R,R)-trans-1,2-cyclohexanediamine-(dihydrogenpyrophosphato)platinum(II)]
1 Month
  (DACH) Pt-diaquo (~RRT 0.3): 0.15%
  (DACH) Pt-monoaquo (~RRT 0.7): 1.04%
  Assay (Potency): 98.7%
  PT-112 Dimer (~RRT 4.0): 0.33%
  RRT 0.50: 0.06%
  RRT 0.56: 0.10%
  RRT 0.68: 0.19%
  RRT 0.86: 0.05%
  RRT 3.1-3.2: 0.13%
  Total Related Substances: 2%
  pH: 7.4
3 Month
  (DACH) Pt-diaquo (~RRT 0.3): 0.14%
  (DACH) Pt-monoaquo (~RRT 0.7): 0.92%
  Assay (Potency): 99.7%
  PT-112 Dimer (~RRT 4.0): 0.37%
  RRT 0.50: 0.06%
  RRT 0.56: 0.12%
  RRT 0.68: 0.11%
  RRT 3.1-3.2: 0.25%
  Total Related Substances: 2%
  pH: 7.4
6 Month
  (DACH) Pt-diaquo (~RRT 0.3): 0.17%
  (DACH) Pt-monoaquo (~RRT 0.7): 0.28%
  Assay (Potency): 98.2%
  PT-112 Dimer (~RRT 4.0): 0.36%
  RRT 0.46: 0.06%
  RRT 0.50: 0.18%
  RRT 0.56: 0.06%
  RRT 0.68: 0.16%
  RRT 0.86: 0.05%
  RRT 3.1-3.2: 0.38%
  Total Related Substances: 2%
  pH: 7.4
6 Month, first value
  Particulate Matter (Light Obscuration): 83 particles particles per container
6 Month, second value
  Particulate Matter (Light Obscuration): 1 particles particles per container
9 Month
  (DACH) Pt-diaquo (~RRT 0.3): 0.14%
  (DACH) Pt-monoaquo (~RRT 0.7): 0.81%
  Assay (Potency): 100.2%
  PT-112 Dimer (~RRT 4.0): 0.33%
  RRT 0.46: 0.05%
  RRT 0.50: 0.18%
  RRT 0.56: 0.07%
  RRT 0.68: 0.08%
  RRT 0.86: 0.05%
  RRT 3.1-3.2: 0.39%
  RRT 3.58: 0.07%
  Total Related Substances: 2%
  pH: 7.4
12 Month
  (DACH) Pt-diaquo (~RRT 0.3): 0.12%
  (DACH) Pt-monoaquo (~RRT 0.7): 0.96%
  Assay (Potency): 98.7%
  PT-112 Dimer (~RRT 4.0): 0.34%
  RRT 0.50: 0.15%
  RRT 0.56: 0.16%
  RRT 0.68: 0.11%
  RRT 0.86: 0.05%
  RRT 3.1-3.2: 0.48%
  Total Related Substances: 2%
  pH: 7.4
12 Month, first value
  Particulate Matter (Light Obscuration): 124 particles per container
12 Month, second value
  Particulate Matter (Light Obscuration): 6 particles particles per container
15 Month
  (DACH) Pt-diaquo (~RRT 0.3): 0.14%
  (DACH) Pt-monoaquo (~RRT 0.7): 0.94%
  Assay (Potency): 98.0%
  PT-112 Dimer (~RRT 4.0): 0.34%
  RRT 0.50: 0.16%
  RRT 0.56: 0.17%
  RRT 0.68: 0.12%
  RRT 0.86: 0.06%
  RRT 3.1-3.2: 0.59%
  RRT 3.58: 0.07%
  Total Related Substances: 3%
  pH: 7.4
18 Month
  (DACH) Pt-diaquo (~RRT 0.3): 0.13%
  (DACH) Pt-monoaquo (~RRT 0.7): 0.76%
  Assay (Potency): 97.5%
  PT-112 Dimer (~RRT 4.0): 0.33%
  RRT 0.46: 0.09%
  RRT 0.50: 0.26%
  RRT 0.56: 0.06%
  RRT 0.68: 0.08%
  RRT 0.86: 0.05%
  RRT 3.1-3.2: 0.58%
  RRT 3.58: 0.10%
  Total Related Substances: 2%
  pH: 7.4
21 Month
  (DACH) Pt-diaquo (~RRT 0.3): 0.12%
  (DACH) Pt-monoaquo (~RRT 0.7): 1.07%
  Assay (Potency): 97.4%
  PT-112 Dimer (~RRT 4.0): 0.35%
  RRT 0.46: 0.07%
  RRT 0.50: 0.23%
  RRT 0.56: 0.12%
  RRT 0.68: 0.14%
  RRT 0.86: 0.05%
  RRT 3.1-3.2: 0.67%
  RRT 3.58: 0.10%
  Total Related Substances: 3%
  pH: 7.4
24 Month
  (DACH) Pt-diaquo (~RRT 0.3): 0.11%
  (DACH) Pt-monoaquo (~RRT 0.7): 0.93%
  Assay (Potency): 96.5%
  PT-112 Dimer (~RRT 4.0): 0.33%
  RRT 0.46: 0.08%
  RRT 0.50: 0.25%
  RRT 0.56: 0.12%
  RRT 0.68: 0.11%
  RRT 0.86: 0.06%
  RRT 3.1-3.2: 0.65%
  RRT 3.58: 0.14%
  Total Related Substances: 3%
  pH: 7.4
Initial
  (DACH) Pt-diaquo (~RRT 0.3): 0.16%
  (DACH) Pt-monoaquo (~RRT 0.7): 0.84%
  Assay (Potency): 98.1%
  PT-112 Dimer (~RRT 4.0): 0.34%
  RRT 0.50: 0.06%
  RRT 0.56: 0.08%
  RRT 0.68: 0.09%
  RRT 3.1-3.2: 0.11%
  Total Related Substances: 2%
  pH: 7.4
Initial, first value
  Particulate Matter (Light Obscuration): 30 particles particles per container
Initial, second value
  Particulate Matter (Light Obscuration): 11 particles particles per container
